Where a name gives a salt, the structure may show the parent alone.
System: STAT6
Assay: Inhibitory test on STAT6 activation: IL-4-induced alkali phosphatase STAT6 reporter in 293 cells stably expressing the STAT6 gene and STAT6 reporter gene
Format: cell-based
Conditions: HEK293; Table 2; 1 ng/ml human recombinant IL-4, 16 hours, 293 cells with STAT6 reporter; read-out: Inhibitory activity IC50 (concentration at which the alkali phosphatase activity induced by IL-4 was inhibited by 50%)
Procedure, shortened: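 HEK293 clone stably carrying STAT6 and a STAT6-element-driven alkaline phosphatase reporter, 5000 cells/well. Compound (DMSO ≤0.1%) plus 1 ng/ml human IL-4 for 16 hours. Supernatant heat-treated 65° C. 10 minutes, then alkaline phosphatase measured fluorometrically in carbonate buffer.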

An IC50 of less than 10 nM was found for `CN(C)S(=O)(=O)c1ccc(N2CCN(c3ncnc4ccc(-c5cn[nH]c5)cc34)CC2)cc1` [Example 921, N,N-Dimethyl-4-{4-[6-(1H-pyrazol-4-yl)quinazolin-4-yl]piperazin-1-yl} benzene sulfonamide] in this work.

An IC50 of less than 10 nM was found for `CS(=O)(=O)c1ccc(N2CCN(c3ncnc4ccc(-c5cn[nH]c5)cc34)CC2)s1` [Example 923, 4-[4-(5-Methylsulfonylthiophen-2-yl)piperazin-1-yl]-6-(1H-pyrazol-4-yl)quinazoline trihydrochloride] in this work.

An IC50 of less than 10 nM was found for `Cc1cccc(N2CCN(c3ncnc4ccc(-c5cn[nH]c5)cc34)CC2)c1` [Example 934, 6-(1H-Pyrazol-4-yl)-4-(4-m-tolylpiperazin-1-yl)-quinazoline tri-trifluoroacetate] in this work.

An IC50 of less than 10 nM was found for `c1ccc(N2CCN(c3ncnc4ccc(-c5cn[nH]c5)cc34)CC2)nc1` [Example 936, 6-(1H-Pyrazol-4-yl)-4-(4-pyridin-2-yl-piperazin-1-yl)quinazoline tri-trifluoroacetate] in this work.

An IC50 of less than 10 nM was found for `CS(=O)(=O)c1cccc(N2CCN(c3ncnc4ccc(-c5cn[nH]c5)cc34)CC2)c1` [Example 946, 4-[4-(3-Methylsulfonylphenyl)piperazin-1-yl]-6-(1H-pyrazol-4-yl)quinazoline tri-trifluoroacetate] in this work.

An IC50 of 10 to 100 nM was found for `O=S(=O)(CCO)c1cccc(N2CCN(c3ncnc4ccc(-c5cn[nH]c5)cc34)CC2)c1` [Example 951, 2-(3-{4-[6-(1H-Pyrazol-4-yl)quinazolin-4-yl]piperazin-1-yl}benzenesulfonyl)ethanol tri-trifluoroacetate] in this work.

An IC50 of less than 10 nM was found for `CNS(=O)(=O)c1cccc(N2CCN(c3ncnc4ccc(-c5cn[nH]c5)cc34)CC2)c1` [Example 952, N-Methyl-3-{4-[6-(1H-pyrazol-4-yl)quinazolin-4-yl]piperazin-1-yl}benzene sulfonamide tri-trifluoroacetate] in this work.

An IC50 of less than 10 nM was found for `O=S(=O)(c1cccc(N2CCN(c3ncnc4ccc(-c5cn[nH]c5)cc34)CC2)c1)N1CCCCC1` [Example 955, 4-{4-[3-(Piperidine-1-sulfonyl)phenyl]piperazin-1-yl}-6-(1H-pyrazol-4-yl)quinazoline tri-trifluoroacetate] in this work.

An IC50 of 10 to 100 nM was found for `c1nc(N2CCN(C3CCCCC3)CC2)c2cc(-c3cn[nH]c3)ccc2n1` [Example 957, 4-(4-Cyclohexylpiperazin-1-yl)-6-(1H-pyrazol-4-yl)quinazoline tri-trifluoroacetate] in this work.

An IC50 of less than 10 nM was found for `COc1ccc(-c2n[nH]cc2-c2ccc3ncnc(N4CCN(c5cccc(S(C)(=O)=O)c5)CC4)c3c2)cc1OC` [Example 963, 6-[3-(3,4-Dimethoxyphenyl)-1H-pyrazol-4-yl]-4-[4-(3-methylsulfonylphenyl)piperazin-1-yl]-quinazoline tri-trifluoroacetate] in this work.

An IC50 of less than 10 nM was found for `CS(=O)(=O)c1cccc(N2CCN(c3ncnc4ccc(-c5c[nH]nc5-c5ccc6c(c5)OCO6)cc34)CC2)c1` [Example 964, 6-(3-Benzo[1,3]dioxol-5-yl-1H-pyrazol-4-yl)-4-[4-(3-methylsulfonylphenyl)piperazin-1-yl]quinazoline tri-trifluoroacetate] in this work.

An IC50 of less than 10 nM was found for `CS(=O)(=O)c1cccc(N2CCN(c3ncnc4ccc(-c5c[nH]nc5-c5ccc(C#N)s5)cc34)CC2)c1` [Example 967, 5-(4-{4-[4-(3-Methylsulfonylphenyl)piperazin-1-yl]quinazolin-6-yl}-1H-pyrazol-3-yl)thiophen-2-carbonitrile tri-trifluoroacetate] in this work.

An IC50 of 100 to 1000 nM was found for `Cc1ccc(S(=O)(=O)N2CCN(c3ncnc4ccc(-c5cn[nH]c5)cc34)CC2)cc1` [Example 971, 4-[4-(Toluene-4-sulfonyl)piperazin-1-yl]-6-(1H-pyrazol-4-yl)quinazoline di-trifluoroacetate] in this work.

An IC50 of less than 10 nM was found for `O=C(Nc1cccc(N2CCN(c3ncnc4ccc(-c5cn[nH]c5)cc34)CC2)c1)C1CC1` [Example 976, Cyclopropanecarboxylic acid (3-{4-[6-(1H-pyrazol-4-yl)quinazolin-4-yl]piperazin-1-yl}phenyl)amide tri-trifluoroacetate] in this work.

An IC50 of less than 10 nM was found for `O=C(Nc1cccc(N2CCN(c3ncnc4ccc(-c5cn[nH]c5)cc34)CC2)c1)C1(c2ccccc2)CC1` [Example 978, 1-Phenylcyclopropanecarboxylic acid (3-{4-[6-(1H-pyrazol-4-yl)quinazolin-4-yl]piperazin-1-yl}phenyl)amide tri-trifluoroacetate] in this work.

An IC50 of 10 to 100 nM was found for `O=S(=O)(Nc1cccc(N2CCN(c3ncnc4ccc(-c5cn[nH]c5)cc34)CC2)c1)c1cccs1` [Example 993, Thiophene-2-sulfonic acid (3-{4-[6-(1H-pyrazol-4-yl)quinazolin-4-yl]piperazin-1-yl)phenyl)amide tri-trifluoroacetate] in this work.

An IC50 of less than 10 nM was found for `O=S1(=O)CCCN1c1cccc(N2CCN(c3ncnc4ccc(-c5cn[nH]c5)cc34)CC2)c1` [Example 1000, 4-{4-[3-(1,1-Dioxo-isothiazolidin-2-yl)phenyl]piperazin-1-yl}-6-(1H-pyrazol-4-yl)quinazoline tri-trifluoroacetate] in this work.

An IC50 of 10 to 100 nM was found for `CS(=O)(=O)c1cccc(N2CCCN(c3ncnc4ccc(-c5cn[nH]c5)cc34)CC2)c1` [Example 1002, 4-{4-(3-Methylsulfonyl)phenyl}-1,4-diazepan-1-yl}-6-(1H-4-pyrazolyl)quinazoline hydrochloride] in this work.

An IC50 of 10 to 100 nM was found for `N#Cc1cc(N2CCN(c3ncnc4ccc(-c5cn[nH]c5)cc34)CC2)ccc1F` [Example 1007, 2-Fluoro-5-{4-[6-(1H-4-pyrazolyl)-4-quinazolinyl]piperazin-1-yl}benzonitrile hydrochloride] in this work.

An IC50 of 10 to 100 nM was found for `CS(=O)(=O)c1ccc(OC2CCN(c3ccnc4ccc(-c5cn[nH]c5)cc34)CC2)c(F)c1` [Example 1032, 4-[4-(2-Fluoro-4-methylsulfonylphenoxy)-piperidin-1-yl]-6-(1H-pyrazol-4-yl)quinoline trihydrochloride] in this work.

An IC50 of 10 to 100 nM was found for `O=S(=O)(c1ccc(OC2CCN(c3ccnc4ccc(-c5c[nH]nc5C(F)(F)F)cc34)CC2)cc1)C(F)(F)F` [Example 1034, 4-[4-(4-Trifluoromethylsulfonylphenoxy)piperidin-1-yl]-6-(3-trifluoromethyl-1H-pyrazol-4-yl)quinoline trihydrochloride] in this work.

An IC50 of 10 to 100 nM was found for `Cc1cc(-c2ccnc3ccc(-c4c[nH]nc4C(F)(F)F)cc23)on1` [Example 1070, 4-(3-Methylisoxazol-5-yl)-6-(3-trifluoromethyl-1H-pyrazol-4-yl) quinoline] in this work.

From patent US7074801B1, “Nitrogen-containing condensed cyclic compound having a pyrazolyl group as a substituent group and pharmaceutical composition thereof” (Eisai Co., Ltd., priority 2001, dated 2006)
